Test results reported in US20220249596A1, “PIC1 PEPTIDE COMPOSITIONS AND METHODS OF USE THEREOF FOR TREATMENT OF HYPOXIC ISCHEMIC ENCEPHALOPATHY” (REALTA HOLDINGS, LLC, priority 2019, published 2022).
No end group written: not given here.

Tests used:
Type in all cases: in vivo, rat
C9 = experiment: Immunofluorescence quantification of C9 in brain; details: ipsilateral cortex and hippocampus, 48 hours, versus NT, P<0.05
Procedure: (§1) TUNEL/C1q staining was performed as follows. Five (5) μm paraffin-embedded coronal brain sections on slides were incubated (1 hour; 60° C.), deparaffinized with xylene, and rehydrated with ethanol (100%, 95%, 70%; RT). Endogenous peroxidase activity was blocked (0.3% H2O2/MeOH; 10 minutes; RT), and heat induced antigen retrieval was performed (when indicated) using 10 mM sodium citrate, pH 6.0. 10% normal serum (from the same species as the host of the secondary antibody) was used to block and to dilute antibodies. Samples were washed twice for 10 min each, in PBST between each step.
After blocking for one hour at room temperature, tissues were incubated with 1:300 goat anti-Iba1 (Abcam), 1:250 goat anti-GFAP (Abcam), 1:500 chicken anti-NeuN (Millipore, Billerica, Mass.), or 1:100 mouse anti-NeuN (Millipore) in host appropriate blocking serum overnight at 4° C. Primary antibodies were probed with 1:500 donkey anti-goat (Abcam), goat anti-chicken (Abcam), or goat anti-mouse (Abcam) AF 488 or 568 in appropriate blocking serum for one hour at room temperature. Tissues were blocked a second time with NGS for one hour at room temperature. […]

[1] = Barnes maze, spatial learning and memory
Procedure: Spatial learning and memory were evaluated by measuring navigational ability of rats in a Barnes maze 8 weeks after initial injury. The Barnes maze tests memory across test sessions or trials and is more closely related to long-term memory. The test was performed using a Plexiglas maze 122 cm in diameter, with 20 equidistant holes (10.5 cm diameter) spaced every […], and centered 20 cm from the outer perimeter. An escape box (8 cm in depth) was placed under one of the holes. The position of the escape box was varied randomly from rat to rat, but kept constant for a given rat throughout testing. A floodlight was placed over the maze to serve as an aversive stimulus.
Prior to testing, the rats underwent habituation sessions once a day for 5 consecutive days. In each session, the rats were placed in a holding box in the middle of the maze and allowed to get acclimated for 60 seconds. The holding box was then lifted up from the rats so that the rats were allowed to explore. The test was over when either the rat found the burrowing hole and burrowed for 10 seconds or the 5-minute time limit was reached. […] On the 14th day after the habituation sessions, the rats were tested to evaluate memory retention. Latency to investigate any hole, escape latency, and number of errors during the test trials were analyzed by two-way ANOVA, followed by Bonferroni's post hoc comparison matrix. The same measurements recorded during the memory retention test were analyzed by Student's t-test. Significance was considered at p<0.05.

[2] = system: neurons, microglia and astrocytes of ipsilateral cortex and hippocampus; experiment: Immunofluorescence of neurons (NeuN), microglia (Iba1), astrocytes (GFAP) after HIE; details: P<0.05
Procedure: as §1
(§2) After blocking for one hour at room temperature, tissues were incubated with 1:300 goat anti-Iba1 (Abcam), 1:250 goat anti-GFAP (Abcam), 1:500 chicken anti-NeuN (Millipore, Billerica, Mass.), or 1:100 mouse anti-NeuN (Millipore) in host appropriate blocking serum overnight at 4° C. Primary antibodies were probed with 1:500 donkey anti-goat (Abcam), goat anti-chicken (Abcam), or goat anti-mouse (Abcam) AF 488 or 568 in appropriate blocking serum for one hour at room temperature. Tissues were blocked a second time with NGS for one hour at room temperature. Samples were then probed with 1:300 mouse anti-C1q (Abcam), 1:300 rabbit anti-C9, 1:50 rabbit anti-MPO (Abcam), 1:200 rabbit anti-TMEM (Novus Bio, Centennial, Colo.), 1:100 rabbit anti-C3aR (Bioss), 1:100 Mouse anti-C5aR (Hycult), or 1:200 chicken anti-C3/C3a (Abcam) in NGS overnight at 4° C. and then with 1:500 goat anti-mouse, rabbit, or chicken (Abcam) AF 488 or 568 in NGS for one hour at room temperature.
Fluorescent images of the cortex were taken at 20× magnification using a digital camera (DP70, Olympus Center, Valley Forge, Pa.), mounted on a BX50 Olympus microscope. Adobe Photoshop CS5 was used to merge immunofluorescence images, and Image J (National Institutes of Health) was used for analysis.

C5aR = experiment: Whole brain C5aR expression, Western blotting and immunofluorescence; details: NT versus PIC1-treated groups
Procedure: as §2
Without wishing to be bound by theory, C3a is generated at the convergence of all known complement activation pathways (i.e., the classical, alternate and lectin pathways). To investigate further, C3aR levels in the brain were measured by Western blotting and immunofluorescence (FIG. 5). Western blotting was performed as follows. […]

TMEM119 (microglia) = experiment: TMEM119 and Iba1/TMEM119 staining of cortex; details: 48 hours after injury
Procedure: as §2
Accordingly, a more specific microglial marker was used to differentiate microglia from infiltrated peripheral macrophages. TMEM119 is a reliable microglial marker that discriminates resident microglia from blood-derived macrophages in the brain [21].

[3] = Beam balance test (tapered/ledged beam); details: six weeks after surgery
Procedure: No other preparation was needed. The thawed tubes were kept on ice until dosing.
Six weeks after surgery, the sensory motor functions of forelimbs and hindlimbs were tested using tapered/ledged beam (Zhao et al., Behav. Brain Res. 156 (2005), 85-94). The shape of the beam was square. The rats were pre-trained for 3 days to traverse the beam. The beam-walking apparatus consists of a horizontal 160 cm tapered (square) beam with underhanging ledges on each side to permit foot faults without falling. The end of the beam was connected to a black box (20.5 cm×25 cm×25 cm) with a platform at the starting point. A bright light was placed above the start point to motivate the rats to traverse the beam. The rats' performance was videotaped and were analyzed by calculating the slip ratio of the impaired (contralateral to lesion) forelimb and hindlimb (number of slips/number of total steps). Steps onto the ledge were scored as a full slip and a half slip was given if the limb touched the side of the beam. Also, the walking/running time on the beam were measured. The mean of three trials were used for statistical analyses. Analysis was carried out by an observer blind to the experimental groups.

In the case of “IALILEPICCQERAA-dPEG24 (cysteine pairing not given here) [PIC1]”, the C9 expression (C9) is reported as “decreased expression”, the “Barnes maze: latency in finding the escape hole” value ([1]; 8 weeks after injury, versus NT and HT animals) is reported as “significantly shorter” and the “Barnes maze: seeking strategy” value ([1]; direct versus random or serial strategy) is reported as “more likely to use a direct strategy”. For the same substance, the “Barnes maze: errors in finding the escape hole” value ([1]; versus HT-treated animals) was “significantly fewer”, the “Barnes maze: errors in finding the escape hole” value ([1]; versus NT animals, P=0.06, not statistically significant) was “trended towards fewer errors” and the neuronal density ([2]; 48 hours, versus NT and HT) was “higher neuronal density”. For the same substance, the astrogliosis ([2]; versus NT) was “reduced astrogliosis”, the “microglial numbers and size” value ([2]; versus NT) was “reduced microglial numbers and size” and the “expression of C5aR” value (C5aR) was “no significant differences”. The “combined Iba1/TMEM119 staining in the cortex” value (TMEM119 (microglia); versus NT and HT animals) was “almost two-fold decrease”, the “TMEM119 expression in the cortex” value (TMEM119 (microglia); versus NT brains) was “almost a three-fold decrease” and the “beam balance: hind paw slips” value ([3]; between study groups) was “No differences”. For the same substance, the “beam balance: front paw slips” value ([3]; pooled genders and males, versus H/I+normo, p<0.05) was “fewer front paw slips”.
